This note sets out measurements from patent US9365613B2, “Acylated 4-amidino- and -4-guanidinobenzylamines for inhibition of plasma kallikrein” (The Medicines Company (Leipzig) GmbH, priority 2003, dated 2016).

SMILES strings stand for the structures.

T2 sequence (P03951 388-625 limits assumed): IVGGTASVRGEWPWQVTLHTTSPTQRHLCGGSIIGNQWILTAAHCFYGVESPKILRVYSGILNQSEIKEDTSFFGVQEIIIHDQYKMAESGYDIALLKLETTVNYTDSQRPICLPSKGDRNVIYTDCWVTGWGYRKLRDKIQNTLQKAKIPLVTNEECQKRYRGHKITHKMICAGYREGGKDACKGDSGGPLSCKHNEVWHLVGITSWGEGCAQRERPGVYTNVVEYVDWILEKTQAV
T2 sequence (P03951 19-387 partner limits assumed): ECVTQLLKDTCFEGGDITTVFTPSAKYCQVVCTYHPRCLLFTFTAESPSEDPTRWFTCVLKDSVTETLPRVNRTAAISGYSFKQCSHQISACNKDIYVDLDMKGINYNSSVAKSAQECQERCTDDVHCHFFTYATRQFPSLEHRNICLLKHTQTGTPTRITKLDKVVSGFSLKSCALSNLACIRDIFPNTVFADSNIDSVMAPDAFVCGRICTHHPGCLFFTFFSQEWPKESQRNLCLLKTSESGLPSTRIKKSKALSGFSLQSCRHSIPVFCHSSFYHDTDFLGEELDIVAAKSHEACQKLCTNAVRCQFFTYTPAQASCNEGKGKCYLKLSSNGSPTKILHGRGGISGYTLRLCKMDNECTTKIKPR

In the first experiment the target is plasma kallikrein (PK) (Homo sapiens, UniProt P03952). The experiment can be described thus: Determining the inhibitory constants: inhibition of PK (substrate Bzl-Pro-Phe-Arg-pNA). It is filed as biochemical. Conditions: Tris buffer pH 8.0, 25° C.; mean of at least three determinations. The procedure: (§1) The inhibitory effect for the individual enzymes was determined in analogy with a method which has already been described (Stürzebecher et al., J. Med. Chem. 40, 3091-3099, 1997).
plasma kallikrein (PK), sequence (P03952 391-638 limits assumed, species assumed): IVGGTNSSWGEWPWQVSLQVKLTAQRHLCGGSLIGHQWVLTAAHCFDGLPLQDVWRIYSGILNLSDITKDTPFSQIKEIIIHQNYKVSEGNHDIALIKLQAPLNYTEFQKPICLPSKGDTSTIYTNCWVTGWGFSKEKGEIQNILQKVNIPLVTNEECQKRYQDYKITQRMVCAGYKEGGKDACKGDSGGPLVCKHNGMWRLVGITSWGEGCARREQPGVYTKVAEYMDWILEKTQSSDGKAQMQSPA
plasma kallikrein (PK), sequence (P03952 20-390 partner limits assumed, species assumed): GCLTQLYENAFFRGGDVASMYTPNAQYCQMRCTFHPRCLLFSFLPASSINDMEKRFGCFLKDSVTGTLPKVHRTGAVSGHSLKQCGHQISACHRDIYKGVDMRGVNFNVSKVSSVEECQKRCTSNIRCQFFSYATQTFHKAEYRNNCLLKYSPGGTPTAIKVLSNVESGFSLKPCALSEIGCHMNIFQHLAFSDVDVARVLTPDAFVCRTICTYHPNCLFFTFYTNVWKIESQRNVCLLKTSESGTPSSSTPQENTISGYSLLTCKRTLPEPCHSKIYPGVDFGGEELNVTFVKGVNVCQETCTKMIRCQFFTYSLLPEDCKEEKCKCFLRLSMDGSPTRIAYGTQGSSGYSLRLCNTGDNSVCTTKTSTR
(§2) After 3 min, the reaction was terminated by adding 25 μl of acetic acid (50%) and the absorption at […] was determined using a Microplate Reader (Labsystems iEMS Reader MF). The Ki values were determined, in accordance with Dixon (Biochem. J. 55, 170-171, 1953), by means of linear regression and using a computer program. The Ki values are the mean of at least three determinations.
`N=C(N)c1ccc(CNC(=O)[C@H](CCc2ccccc2)NC(=O)[C@@H](CO)NS(=O)(=O)Cc2ccccc2)cc1` [Inhibitor 19] had a Ki of 0.048 µM.
In the case of `N=C(N)c1ccc(CNC(=O)CNC(=O)[C@@H](CO)NS(=O)(=O)Cc2ccc(C(=O)O)cc2)cc1` [Inhibitor 20], the Ki came out at 0.7 µM.
The same measure, in the same setting: with `COC(=O)c1ccc(CS(=O)(=O)N[C@H](CO)C(=O)NCC(=O)NCc2ccc(C(=N)N)cc2)cc1` [Inhibitor 21] the figure was 4.2 µM.
On the same count and under the same terms, next, `C[C@H](NC(=O)[C@@H](CO)NS(=O)(=O)Cc1ccc(C(=O)O)cc1)C(=O)NCc1ccc(C(=N)N)cc1` [Inhibitor 22]: 0.016 µM; `N=C(N)c1ccc(CNC(=O)[C@H](CO)NC(=O)[C@@H](CO)NS(=O)(=O)Cc2ccc(C(=O)O)cc2)cc1` [Inhibitor 23]: 0.029 µM.
The same measure, in the same setting: with `COC(=O)c1ccc(CS(=O)(=O)N[C@H](CO)C(=O)N[C@@H](CO)C(=O)NCc2ccc(C(=N)N)cc2)cc1` [Inhibitor 24] the figure was 0.16 µM; with `N=C(N)c1ccc(CNC(=O)CNC(=O)[C@@H](CO)NS(=O)(=O)Cc2ccc(CN)cc2)cc1` [Inhibitor 25], 6.3 µM.
On to `CC(C)(C)OC[C@@H](NS(=O)(=O)Cc1ccccc1)C(=O)NCC(=O)NCc1ccc(C(=N)N)cc1` [Inhibitor 26], for which affinity was put at a Ki of 0.34 µM.
On the same count and under the same terms, next, `C[C@H](NC(=O)[C@@H](COC(C)(C)C)NS(=O)(=O)Cc1ccccc1)C(=O)NCc1ccc(C(=N)N)cc1` [Inhibitor 27]: 0.061 µM; `CC(C)(C)OC[C@@H](NS(=O)(=O)Cc1ccccc1)C(=O)N1CCC[C@H]1C(=O)NCc1ccc(C(=N)N)cc1` [Inhibitor 28]: 0.0065 µM; `CC(C)(C)OC[C@@H](NS(=O)(=O)Cc1ccccc1)C(=O)N[C@@H](CC(=O)O)C(=O)NCc1ccc(C(=N)N)cc1` [Inhibitor 29]: 0.91 µM.
On the same count and under the same terms, next, `CC(C)(C)OC[C@@H](NS(=O)(=O)Cc1ccccc1)C(=O)N[C@@H](CCC(=O)O)C(=O)NCc1ccc(C(=N)N)cc1` [Inhibitor 30]: 0.36 µM.
Still for that read-out and setting: next, `CC(C)(C)OC[C@@H](NS(=O)(=O)Cc1ccccc1)C(=O)N[C@@H](CCC(N)=O)C(=O)NCc1ccc(C(=N)N)cc1` [Inhibitor 31]: 0.0092 µM; `CC(C)(C)OC[C@@H](NS(=O)(=O)Cc1ccccc1)C(=O)NC(CC(=O)O)CC(=O)NCc1ccc(C(=N)N)cc1` (stereo partly drawn) [Inhibitor 32]: 8 µM; `CC(C)(C)OC[C@@H](NS(=O)(=O)Cc1ccccc1)C(=O)N[C@@H](CN)C(=O)NCc1ccc(C(=N)N)cc1` [Inhibitor 33]: 0.022 µM.

In another experiment the target is T1, human factor XIIa (Homo sapiens, UniProt P00748).
T1 construct: purchased Haemochrom Diagnostica GmbH, Essen, Germany
T1 sequence (P00748 373-615 limits assumed, other chains not shown): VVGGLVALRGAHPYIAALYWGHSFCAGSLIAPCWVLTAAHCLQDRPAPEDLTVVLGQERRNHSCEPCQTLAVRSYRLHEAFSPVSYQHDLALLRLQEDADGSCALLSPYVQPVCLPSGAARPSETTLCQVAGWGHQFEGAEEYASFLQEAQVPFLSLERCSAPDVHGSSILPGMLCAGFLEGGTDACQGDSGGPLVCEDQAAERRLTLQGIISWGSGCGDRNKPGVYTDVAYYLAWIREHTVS
The experiment can be described thus: Inhibitory constants for factor XIIa (substrate H-D-HHT-Gly-Arg-pNA, Chromozym XII). The following applies: read-out: Ki F XIIa. It is filed as biochemical. The procedure: as §1, §2
(§3) The inhibition of factor XIa and factor XIIa was determined in an analogous manner. When determining the inhibitory constants for human factor XIa (Haemochrom Diagnostica GmbH, Essen, Germany), H-D-Lys(Z)-Pro-Arg-pNA (Chromozym PCa, Roche Diagnostics GmbH, Mannheim, Germany) was used as the substrate.
H-D-HHT-Gly-Arg-pNA (Chromozym XII, Roche Diagnostics GmbH, Mannheim, Germany) was used as the substrate for measuring the inhibitory constants of human factor XIIa (Haemochrom Diagnostica GmbH, Essen, Germany).
With `N=C(N)c1ccc(CNC(=O)[C@H](CCc2ccccc2)NC(=O)[C@@H](CO)NS(=O)(=O)Cc2ccccc2)cc1` [Inhibitor 19], the Ki is 2.8 µM.
With `N=C(N)c1ccc(CNC(=O)CNC(=O)[C@@H](CO)NS(=O)(=O)Cc2ccc(C(=O)O)cc2)cc1` [Inhibitor 20], the Ki was above 1000 µM.
The same measure, in the same setting: with `COC(=O)c1ccc(CS(=O)(=O)N[C@H](CO)C(=O)NCC(=O)NCc2ccc(C(=N)N)cc2)cc1` [Inhibitor 21] the figure was 42 µM; with `C[C@H](NC(=O)[C@@H](CO)NS(=O)(=O)Cc1ccc(C(=O)O)cc1)C(=O)NCc1ccc(C(=N)N)cc1` [Inhibitor 22], 17 µM; with `N=C(N)c1ccc(CNC(=O)[C@H](CO)NC(=O)[C@@H](CO)NS(=O)(=O)Cc2ccc(C(=O)O)cc2)cc1` [Inhibitor 23], above 1000 µM.
The same measure, in the same setting: with `COC(=O)c1ccc(CS(=O)(=O)N[C@H](CO)C(=O)N[C@@H](CO)C(=O)NCc2ccc(C(=N)N)cc2)cc1` [Inhibitor 24] the figure was 19 µM; with `N=C(N)c1ccc(CNC(=O)CNC(=O)[C@@H](CO)NS(=O)(=O)Cc2ccc(CN)cc2)cc1` [Inhibitor 25], 17 µM.
Take `CC(C)(C)OC[C@@H](NS(=O)(=O)Cc1ccccc1)C(=O)NCC(=O)NCc1ccc(C(=N)N)cc1` [Inhibitor 26]: the Ki came out at 2.6 µM.
Still for that read-out and setting: with `C[C@H](NC(=O)[C@@H](COC(C)(C)C)NS(=O)(=O)Cc1ccccc1)C(=O)NCc1ccc(C(=N)N)cc1` [Inhibitor 27] the figure was 2 µM.
The same measure, in the same setting: next, `CC(C)(C)OC[C@@H](NS(=O)(=O)Cc1ccccc1)C(=O)N1CCC[C@H]1C(=O)NCc1ccc(C(=N)N)cc1` [Inhibitor 28]: 0.49 µM; `CC(C)(C)OC[C@@H](NS(=O)(=O)Cc1ccccc1)C(=O)N[C@@H](CC(=O)O)C(=O)NCc1ccc(C(=N)N)cc1` [Inhibitor 29]: above 1000 µM.
The same measure, in the same setting: with `CC(C)(C)OC[C@@H](NS(=O)(=O)Cc1ccccc1)C(=O)N[C@@H](CCC(=O)O)C(=O)NCc1ccc(C(=N)N)cc1` [Inhibitor 30] the figure was 19 µM; with `CC(C)(C)OC[C@@H](NS(=O)(=O)Cc1ccccc1)C(=O)N[C@@H](CCC(N)=O)C(=O)NCc1ccc(C(=N)N)cc1` [Inhibitor 31], 6.3 µM; with `CC(C)(C)OC[C@@H](NS(=O)(=O)Cc1ccccc1)C(=O)NC(CC(=O)O)CC(=O)NCc1ccc(C(=N)N)cc1` (stereo partly drawn) [Inhibitor 32], above 1000 µM.
For `CC(C)(C)OC[C@@H](NS(=O)(=O)Cc1ccccc1)C(=O)N[C@@H](CN)C(=O)NCc1ccc(C(=N)N)cc1` [Inhibitor 33], the Ki came out at 4 µM.

The next experiment concerns the target T2, human factor XIa (Homo sapiens, UniProt P03951).
T2 construct: purchased Haemochrom Diagnostica GmbH, Essen, Germany
The experiment can be described thus: Inhibitory constants for factor XIa (substrate H-D-Lys(Z)-Pro-Arg-pNA, Chromozym PCa). The class given is biochemical. The following applies: read-out: Ki F XIa. The procedure: as §1, §2, §3
Regarding `N=C(N)c1ccc(CNC(=O)[C@H](CCc2ccccc2)NC(=O)[C@@H](CO)NS(=O)(=O)Cc2ccccc2)cc1` [Inhibitor 19], the Ki worked out at 0.084 µM.
Still for that read-out and setting: with `N=C(N)c1ccc(CNC(=O)CNC(=O)[C@@H](CO)NS(=O)(=O)Cc2ccc(C(=O)O)cc2)cc1` [Inhibitor 20] the figure was 0.6 µM; with `COC(=O)c1ccc(CS(=O)(=O)N[C@H](CO)C(=O)NCC(=O)NCc2ccc(C(=N)N)cc2)cc1` [Inhibitor 21], 8.1 µM; with `C[C@H](NC(=O)[C@@H](CO)NS(=O)(=O)Cc1ccc(C(=O)O)cc1)C(=O)NCc1ccc(C(=N)N)cc1` [Inhibitor 22], 0.015 µM.
The same measure, in the same setting: next, `N=C(N)c1ccc(CNC(=O)[C@H](CO)NC(=O)[C@@H](CO)NS(=O)(=O)Cc2ccc(C(=O)O)cc2)cc1` [Inhibitor 23]: 0.17 µM; `COC(=O)c1ccc(CS(=O)(=O)N[C@H](CO)C(=O)N[C@@H](CO)C(=O)NCc2ccc(C(=N)N)cc2)cc1` [Inhibitor 24]: 0.87 µM; `N=C(N)c1ccc(CNC(=O)CNC(=O)[C@@H](CO)NS(=O)(=O)Cc2ccc(CN)cc2)cc1` [Inhibitor 25]: 6 µM.
The same measure, in the same setting: next, `CC(C)(C)OC[C@@H](NS(=O)(=O)Cc1ccccc1)C(=O)NCC(=O)NCc1ccc(C(=N)N)cc1` [Inhibitor 26]: 1.4 µM; `C[C@H](NC(=O)[C@@H](COC(C)(C)C)NS(=O)(=O)Cc1ccccc1)C(=O)NCc1ccc(C(=N)N)cc1` [Inhibitor 27]: 0.03 µM.
For `CC(C)(C)OC[C@@H](NS(=O)(=O)Cc1ccccc1)C(=O)N1CCC[C@H]1C(=O)NCc1ccc(C(=N)N)cc1` [Inhibitor 28], the Ki came out at 0.036 µM.
Same read-out and setting: next, `CC(C)(C)OC[C@@H](NS(=O)(=O)Cc1ccccc1)C(=O)N[C@@H](CC(=O)O)C(=O)NCc1ccc(C(=N)N)cc1` [Inhibitor 29]: 0.39 µM; `CC(C)(C)OC[C@@H](NS(=O)(=O)Cc1ccccc1)C(=O)N[C@@H](CCC(=O)O)C(=O)NCc1ccc(C(=N)N)cc1` [Inhibitor 30]: 0.079 µM; `CC(C)(C)OC[C@@H](NS(=O)(=O)Cc1ccccc1)C(=O)N[C@@H](CCC(N)=O)C(=O)NCc1ccc(C(=N)N)cc1` [Inhibitor 31]: 0.067 µM.
With `CC(C)(C)OC[C@@H](NS(=O)(=O)Cc1ccccc1)C(=O)NC(CC(=O)O)CC(=O)NCc1ccc(C(=N)N)cc1` (stereo partly drawn) [Inhibitor 32], the inhibitory constant (Ki) came to 8.2 µM.
The same measure, in the same setting: with `CC(C)(C)OC[C@@H](NS(=O)(=O)Cc1ccccc1)C(=O)N[C@@H](CN)C(=O)NCc1ccc(C(=N)N)cc1` [Inhibitor 33] the figure was 0.19 µM.

Another experiment addresses thrombin (UniProt P00735). The experiment can be described thus: Inhibitory constants for thrombin. It is filed as biochemical. Conditions: read-out: Ki Thrombin.
As to `N=C(N)c1ccc(CNC(=O)[C@H](CCc2ccccc2)NC(=O)[C@@H](CO)NS(=O)(=O)Cc2ccccc2)cc1` [Inhibitor 19], the Ki worked out at 1.2 µM.
Still for that read-out and setting: with `N=C(N)c1ccc(CNC(=O)CNC(=O)[C@@H](CO)NS(=O)(=O)Cc2ccc(C(=O)O)cc2)cc1` [Inhibitor 20] the figure was 170 µM; with `COC(=O)c1ccc(CS(=O)(=O)N[C@H](CO)C(=O)NCC(=O)NCc2ccc(C(=N)N)cc2)cc1` [Inhibitor 21], 9.4 µM.
Same read-out and setting: with `C[C@H](NC(=O)[C@@H](CO)NS(=O)(=O)Cc1ccc(C(=O)O)cc1)C(=O)NCc1ccc(C(=N)N)cc1` [Inhibitor 22] the figure was 2.3 µM; with `N=C(N)c1ccc(CNC(=O)[C@H](CO)NC(=O)[C@@H](CO)NS(=O)(=O)Cc2ccc(C(=O)O)cc2)cc1` [Inhibitor 23], 120 µM.
The same measure, in the same setting: next, `COC(=O)c1ccc(CS(=O)(=O)N[C@H](CO)C(=O)N[C@@H](CO)C(=O)NCc2ccc(C(=N)N)cc2)cc1` [Inhibitor 24]: 4.2 µM; `N=C(N)c1ccc(CNC(=O)CNC(=O)[C@@H](CO)NS(=O)(=O)Cc2ccc(CN)cc2)cc1` [Inhibitor 25]: 8 µM.
On to `CC(C)(C)OC[C@@H](NS(=O)(=O)Cc1ccccc1)C(=O)NCC(=O)NCc1ccc(C(=N)N)cc1` [Inhibitor 26], for which the inhibition constant (Ki) is 0.22 µM.
With `C[C@H](NC(=O)[C@@H](COC(C)(C)C)NS(=O)(=O)Cc1ccccc1)C(=O)NCc1ccc(C(=N)N)cc1` [Inhibitor 27], the Ki was determined as 0.0021 µM.
Same read-out and setting: with `CC(C)(C)OC[C@@H](NS(=O)(=O)Cc1ccccc1)C(=O)N1CCC[C@H]1C(=O)NCc1ccc(C(=N)N)cc1` [Inhibitor 28] the figure was 0.002 µM.
Still for that read-out and setting: with `CC(C)(C)OC[C@@H](NS(=O)(=O)Cc1ccccc1)C(=O)N[C@@H](CC(=O)O)C(=O)NCc1ccc(C(=N)N)cc1` [Inhibitor 29] the figure was 6 µM.
On the same count and under the same terms, with `CC(C)(C)OC[C@@H](NS(=O)(=O)Cc1ccccc1)C(=O)N[C@@H](CCC(=O)O)C(=O)NCc1ccc(C(=N)N)cc1` [Inhibitor 30] the figure was 2.6 µM.
Take `CC(C)(C)OC[C@@H](NS(=O)(=O)Cc1ccccc1)C(=O)N[C@@H](CCC(N)=O)C(=O)NCc1ccc(C(=N)N)cc1` [Inhibitor 31]: the inhibitory constant (Ki) is 0.021 µM.
Regarding `CC(C)(C)OC[C@@H](NS(=O)(=O)Cc1ccccc1)C(=O)NC(CC(=O)O)CC(=O)NCc1ccc(C(=N)N)cc1` (stereo partly drawn) [Inhibitor 32], the Ki is above 1000 µM.
On the same count and under the same terms, next, `CC(C)(C)OC[C@@H](NS(=O)(=O)Cc1ccccc1)C(=O)N[C@@H](CN)C(=O)NCc1ccc(C(=N)N)cc1` [Inhibitor 33]: 0.0094 µM.

What is called Ki is the dissociation constant of the complex between target and ligand, obtained from inhibition or displacement.
